Experiment [1] deals with recombinant PhnsLTP3. As to the kind of experiment: TNS displacement assay with recombinant PhnsLTP3. Particulars: PhnsLTP3 1 µM, TNS 3 µM; for Kd: non-linear fitting to Michaelis-Menten equation (one binding site), means ± S.E., n = 3, read-out: dissociation constant Kd (PhnsLTP3); for Percentage fluorescence quenched: three biological replicates (c2-c4). Type of experiment: binding, Petunia hybrida. The procedure: (§1) To directly test whether PhnsLTP3 can bind petunia VOCs, in vitro displacement assays were performed using the recombinant PhnsLTP3 protein and fluorescent 6-(p-toluidino)−2-naphthalenesulfonate (TNS) in the presence of petunia volatiles. […] TNS fluoresces strongly when bound to the hydrophobic regions of the protein, while it has weak fluorescence in an aqueous solution. […] Potential ligands of the protein will displace the bound TNS from the hydrophobic protein pocket into the aqueous environment leading to a decrease in the fluorescent signal, which was used to calculate the dissociation constant of the protein with ligand. […] To test whether PhnsLTP2 and PhnsLTP3 can bind other VOCs, we assayed the terpenoids: limonene, linalool, and nerolidol, as well as methyl jasmonate in TNS displacement assays. Both PhnsLTP2 and PhnsLTP3 were able to bind tested volatile compounds with Kds in the micromolar range (Supplementary Figs. 16 and 17).
Fig. 5 Binding kinetics of recombinant PhnsLTP3 with VOCs emitted by petunia flowers. TNS displacement assays were performed at fixed concentrations of PhnsLTP3 (1 µM) and TNS (3 µM) and the fluorescence was measured before and after the tested compounds were added at various concentrations. The results are expressed as percentage of fluorescence quenched with respect to the concentration of added compound. The binding curves were obtained by non-linear fitting to the Michaelis-Menten equation (solid line in the graph) and the dissociation constants Kd [µM] were obtained. […] All data are means ± S.E. (n = 3 biological replicates).
(§2) The fluorescence-based-binding assays were performed largely according to previous publications[12],[52] with slight modifications. […] All mixtures were excited at 320 nm, and the fluorescence emission at 437 nm was recorded using a plate reader (SpectraMax iD3, Molecular Devices) at equilibrium after 5 min of incubation at 25 °C giving the background fluorescence Fmix0 and FTNS0 . The tested ligands dissolved in 2 µL DMSO were then added to the mixtures and TNS only to different final concentrations, and the fluorescence emissions were recorded at equilibrium after 5 min of incubation ( Fmixligand and FTNSligand ). To account for the change in the TNS fluorescence intensity upon adding the solvent DMSO, the background fluorescence of TNS ( FTNSsol ) as well as each PhnsLTP with TNS ( Fmixsol ) were measured. The ratios RTNS=FTNSsol/FTNS0 and Rmix=Fmixsol/Fmix0 were calculated to calibrate the fluorescence. Three measurements were taken for each concentration. The results were expressed as a percentage of fluorescence quenched Fmixligand/Rmix−FTNSligand/RTNS/Fmix0−FTNS0×100% . The corresponding dissociation constants kd were obtained by non-linear regression fitting of the binding kinetics to the Michaelis-Menten equation.
The binding curves of PhnsLTP3 with various VOC compounds were obtained by non-linear fitting to the one-binding-site (Eq. (1)) and two-binding-site (Eq. (2)) models. The equations assume that the ligand binds to multiple independent binding sites and that the binding to each site follows the law of mass action:1 %offluorescencequenched=Bmax×[TNS]/kd+[TNS] 2 %offluorescencequenched=Bmax1×[TNS]/kd1+[TNS]+Bmax2×[TNS]/kd2+[TNS] […]
PhnsL TP3 (1 µ M)and TNS (3 µ M)and the fluorescence was measured before and after the tested compounds were added at various concentrations. The results are expressed as percentage of fluorescence quenched with respect to the concentration of added compound.
The binding curves were obtained by non-linear fitting to the Michaelis-Menten equation (solid line in the graph) and the dissociation constants Kd [µ M]were obtained. All data are means ±S.E. (n = 3 biological replicates).
Supplementary Figure 25 | Analysis of number of binding sites of PhnsLTP3.
TNS displacement assay was performed at fixed concentrations of PhnsLTP3 (1 µM) and TNS (3 µM) and the fluorescence was measured before and after methyl […]

Experiment [2] has as its target recombinant PhnsLTP2. As to the kind of experiment: TNS displacement assay with recombinant PhnsLTP2. Particulars: for Kd: PhnsLTP2 1 µM, TNS 3 µM, non-linear fitting to Michaelis-Menten equation, means ± S.E., n = 3, read-out: dissociation constant Kd (PhnsLTP2); for Percentage fluorescence quenched (%): biological replicates 1-3, Supplementary Figure 17. In kind it is binding, Petunia hybrida. The procedure:
as §1, §2
Supplementary Figure 16 | Binding kinetics of recombinant PhnsLTP2 with phenylpropanoids/benzenoids by petunia flowers, terpenoids and methyl jasmonate.
TNS displacement assays were performed at fixed concentrations of PhnsLTP2 (1 µM) and TNS (3 µM) and the fluorescence was measured before and after the tested compounds were added at various concentrations. The results are expressed as percentage of fluorescence quenched with respect to the concentration of added compound. The binding curves were obtained by non-linear fitting to the Michaelis-Menten equation (solid line in the graph) and the dissociation constants Kd [µM] were obtained. Phenylacetaldehyde, eugenol, and […]
corresponding binding curves. All data are means ±S.E. (n = 3 biological replicates).

For experiment [3], the system named is petunia flowers. Briefly: Phenylalanine feeding: total VOC emission and total pools. Conditions: for Total pools / Total emission: biological replicates 1-3; for absolute increase over 2 h in VOC emission rate upon Phe feeding: 150 mM Phe, 19:00 to 22:00 h. In kind it is in vivo, Petunia hybrida. The source says:
Such reduction in VOC emission could be the result of diminished VOC transport across the cell wall, decreased VOC biosynthesis or both. […] Recently, we have shown that the VOC redistribution and reduction of their levels in the cuticle decrease their release from the cell and reduce carbon flux to Phe, which is the precursor for petunia VOCs[8]. […] Thus, to distinguish between the contribution of VOC transport and Phe limitation in VOC biosynthesis, control and PhnsLTP3-RNAi-R5 flowers were fed with Phe, and total VOC emission and total pools were measured from 19:00 to 22:00 h (Supplementary Fig. 20).
Floral volatile emission was analyzed by dynamic headspace collection of volatiles at 25 °C on columns containing 20 mg Porapak Q (80–100 mesh) (Sigma-Aldrich) and analyzed on an Agilent 6890N-5975B GC–MS system as described previously[7],[8],[43] with minor modifications. Briefly, emitted volatiles were collected from detached transgenic and wild-type flowers from 19:00 to 22:00 h on day 2 postanthesis. Adsorbed volatiles were eluted from collection columns with 280 μL dichloromethane containing 52 nmol of naphthalene as the internal standard. For analysis of total petal pools, 0.5 g of petal tissue from transgenic and control plants was collected at 22:00 h on day 2 postanthesis, ground to a fine powder in liquid nitrogen, and total petal pools were extracted in 5 mL of dichloromethane containing 52 nmol of internal standard (naphthalene) for 12 h at −20 °C. Samples were then warmed up, vortexed and concentrated to 200 μL under a stream of nitrogen gas before injection into GC–MS (Agilent 6890N-5975B). All GC–MS data were collected and analyzed using Agilent MSD ChemStation F.01.03.2357 software. For phenylalanine feeding, flowers from wild type and PhnsLTP3-RNAi were harvested and placed in 150 mM of phenylalanine solution. Emitted volatiles and their total petal pools were sampled every hour from 16:00 till 19:00 h and from 19:00 till 22:00 h and analyzed as described above.
Supplementary Figure 20 | Total VOC emission and their total pools in control and PhnsLTP3-RNAi petunia flowers fed with 150 mM Phe. Total VOC emission (a) and total pools (b) in wild-type (WT) and PhnsLTP3-RNAi-R5 line fed with 150 mM Phe from 19:00 to 22:00 h. Data are means ± S.E. (n = 3 biological replicates). […]
determined by two-way ANOV Awith P = 0.0086. […]

Broadly, the Kd is the constant that tells how readily two partners part at equilibrium.

Where “and” joins values, the source holds several entries; their conditions need not be identical. Identical values can stand only once.

`C=CC(C)(O)CCC=C(C)CCC=C(C)C` (mixture of isomers) [Nerolidol]: the Kd in experiment [1] was 2.4 ± 0.4 µM; in experiment [2], 21.4 ± 4.5 µM. Further, the “Percentage fluorescence quenched (%)” value in experiment [2] (VOC concentration 30 µM) is 79.85% and 81.10% and 78.83%.
On to `OCCc1ccccc1` [2-Phenylethanol], for which the dissociation constant (Kd) in experiment [1] was found to be 395 ± 131 µM. The Percentage fluorescence quenched in experiment [1] (VOC concentration 3 µM) is 8.20% and 0.13% and 7.39%; in experiment [1] (VOC concentration 30 µM), 14.26% and 5.61% and 8.61%; in experiment [1] (VOC concentration 300 µM) it was 15.48% and 18.99% and 19.97%; in experiment [1] (VOC concentration 1500 µM), 39.03% and 34.28% and 33.24%; in experiment [1] (VOC concentration 3000 µM), 41.03% and 32.70% and 40.07%.
With `O=Cc1ccccc1` [Benzaldehyde], the Kd in experiment [1] was determined as 276 ± 59.8 µM; in experiment [2], 344 ± 80.7 µM. Besides, the Percentage fluorescence quenched in experiment [1] (VOC concentration 3 µM) was 3.47% and 6.56% and 12.79%; in experiment [1] (VOC concentration 30 µM), 19.94% and 11.97% and 16.71%; in experiment [1] (VOC concentration 300 µM), 45.75% and 56.38% and 51.72%; in experiment [1] (VOC concentration 1500 µM), 74.25% and 79.55% and 80.00%; in experiment [1] (VOC concentration 3000 µM) it was 86.84% and 86.38% and 86.21%.
For `OCc1ccccc1` [Benzyl alcohol], the Kd in experiment [1] is 208 ± 74.2 µM; in experiment [2], 399 ± 261 µM. Also, the Percentage fluorescence quenched in experiment [1] (VOC concentration 30 µM) is 3.06% and 3.64% and 9.84%; in experiment [1] (VOC concentration 300 µM), 23.75% and 24.96% and 17.77%; in experiment [1] (VOC concentration 1500 µM), 32.13% and 29.61% and 29.01%; in experiment [1] (VOC concentration 3000 µM) it was 34.41% and 38.89% and 34.26%.
For the molecule `O=C(OCc1ccccc1)c1ccccc1` [Benzylbenzoate], the Kd was found to be 6.5 ± 2.7 µM in experiment [1] and 21.8 ± 8.8 µM in experiment [2]. Besides, the Percentage fluorescence quenched is 31.47% and 9.59% and 36.79% in experiment [1] (VOC concentration 1 µM); 33.25% and 16.42% and 33.70% in experiment [1] (VOC concentration 3 µM); 25.37% and 28.56% and 39.27% in experiment [1] (VOC concentration 5 µM); 59.42% and 53.23% and 61.87% in experiment [1] (VOC concentration 12 µM); 72.95% and 50.76% and 70.40% in experiment [1] (VOC concentration 30 µM).
For the molecule `C=C(C)[C@H]1CC=C(C)CC1` [Limonene], the Kd in experiment [1] is 26.7 ± 14.2 µM; in experiment [2] it was 126 ± 43.6 µM.
The corresponding values for `C=CC(C)(O)CCC=C(C)C` (stereo not shown) [Linalool] are 299 ± 52.4 µM and 501 ± 35.8 µM.
For `CC/C=C\CC1C(=O)CCC1CC(=O)OC` (stereo not shown) [Methyl jasmonate], the Kd was determined as 253 ± 112 µM in experiment [1] and 184 ± 96.5 µM in experiment [2]. Also, the “Percentage fluorescence quenched (%)” value in experiment [2] (VOC concentration 1500 µM) was 75.75% and 76.43% and 72.92%.
`N[C@@H](Cc1ccccc1)C(=O)O` [Phe, L-phenylalanine]: the Total pools is 440.17 nmol g FW-1 and 381.25 nmol g FW-1 and 288.77 nmol g FW-1 in experiment [3] (PhLTP3-RNAi-5 + Phe, 19:00 h); 756.94 nmol g FW-1 and 1050.75 nmol g FW-1 and 883.29 nmol g FW-1 in experiment [3] (PhLTP3-RNAi-5 + Phe, 20:00 h); 1249.12 nmol g FW-1 and 1300.32 nmol g FW-1 and 829.02 nmol g FW-1 in experiment [3] (PhLTP3-RNAi-5 + Phe, 21:00 h); 913.29 nmol g FW-1 and 1187.03 nmol g FW-1 and 1389.76 nmol g FW-1 in experiment [3] (PhLTP3-RNAi-5 + Phe, 22:00 h); 363.34 nmol g FW-1 and 564.43 nmol g FW-1 and 340.47 nmol g FW-1 in experiment [3] (WT + Phe, 19:00 h); 885.56 nmol g FW-1 and 1126.01 nmol g FW-1 and 1295.32 nmol g FW-1 in experiment [3] (WT + Phe, 20:00 h). The Total pools in experiment [3] (WT + Phe, 21:00 h) was 1190.78 nmol g FW-1 and 1426.22 nmol g FW-1 and 956.14 nmol g FW-1; in experiment [3] (WT + Phe, 22:00 h), 1455.77 nmol g FW-1 and 972.77 nmol g FW-1 and 1086.37 nmol g FW-1. Further, the Total emission in experiment [3] (PhLTP3-RNAi-5 + Phe, 20:00 h) was 837.22 nmol g FW-1 h-1 and 1059.64 nmol g FW-1 h-1 and 828.44 nmol g FW-1 h-1; in experiment [3] (PhLTP3-RNAi-5 + Phe, 21:00 h), 2356.48 nmol g FW-1 h-1 and 1887.30 nmol g FW-1 h-1 and 1311.64 nmol g FW-1 h-1; in experiment [3] (PhLTP3-RNAi-5 + Phe, 22:00 h), 2845.33 nmol g FW-1 h-1 and 2241.14 nmol g FW-1 h-1 and 2347.25 nmol g FW-1 h-1; in experiment [3] (WT + Phe, 20:00 h), 1481.84 nmol g FW-1 h-1 and 2333.99 nmol g FW-1 h-1 and 1404.14 nmol g FW-1 h-1; in experiment [3] (WT + Phe, 21:00 h), 1814.62 nmol g FW-1 h-1 and 2602.15 nmol g FW-1 h-1 and 2554.66 nmol g FW-1 h-1; in experiment [3] (WT + Phe, 22:00 h), 3087.41 nmol g FW-1 h-1 and 2626.99 nmol g FW-1 h-1 and 3838.92 nmol g FW-1 h-1. Further, the entries for the “absolute increase over 2 h in VOC emission rate upon Phe feeding” value in experiment [3] (PhnsLTP3-RNAi-R5 flowers) and in experiment [3] (wild-type flowers) were 1569 ± 76 nmol g FW^−1 and 1444 ± 298 nmol g FW^−1, respectively.
